Experimental data reported in patent publication US20050260136A1, “Topical immune competency diagnostic compositions and methods of use” (priority 2004, published 2005).

Legend:
[1] = test system: HIV sero-positive AIDS patients; assay: Topical DPC skin reaction test (Reactors/Non-Reactors) in a 28-day observational clinical trial; format: in vivo, human; conditions: for # Non-Reactor Patients / # Non-Reactor Patients (%) / # Reactor Patients / # Reactor Patients (%): right forearm
Description: (§1) For the examples, HIV sero-positive AIDS patients were tested based on HIV sero-positivity for a 28-day observational clinical trial. 40 subjects completed the study. Topical 0.1 ml applications of 0.4%, 0.2%, 0.1%, 0.05% Diphenylcyclopropenone in a proprietary anhydrous skin penetrating vehicle plus the vehicle placebo were made to the inner aspect of the forearms of patients and covered with a 1 inch adhesive bandage. Skin reactivity scores of a 4-point scaled based on induration and erythema were recorded weekly, as were side effects to the topical treatments.
For the examples, skin reaction scores were assigned using the following scale:
For the examples, patients having a skin reaction score of +2, +3 and +4 were considered to have a positive response and are labeled as “Reactors”; patients having a skin reaction score of 0 and +1 were considered to not have a response and are labeled as “Non-Reactors”.
Skin Reactions Scores as indicators of immune function responses following single applications of 0.4%, 0.2%, 0.1% and 0.05% DPC compositions were used to distinguish between patients with T Cell CD4 blood counts less than 300 per cu/mm and patients with T Cell CD4 counts higher than 300 per cu/mm.

[2] = test system: HIV sero-positive AIDS patients; assay: Side effects of the topical treatments in the 28-day clinical trial; format: in vivo, human; conditions: 28-day study
Description: as §1
Subjects with CD4 counts less than 300 cu/mm were non-skin reactive. This was found in 36 of the 40 subjects. […] Statistical Sensitivity was 87.4% and Specificity was 100% with the 0.4% Topical Diphenylcyclopropenone Solution selected as the optimal dosage concentration. […] None of the subjects withdrew because of side effects.

[3] = 0.05% DPC applied, patients with CD4 <300 cu/mm
[4] = 0.05% DPC applied, patients with CD4 >300 cu/mm
[5] = 0.1% DPC applied, patients with CD4 <300 cu/mm
[6] = 0.1% DPC applied, patients with CD4 >300 cu/mm
[7] = 0.2% DPC applied, patients with CD4 <300 cu/mm
[8] = 0.2% DPC applied, patients with CD4 >300 cu/mm
[9] = 0.4% DPC applied, patients with CD4 <300 cu/mm
[10] = 0.4% DPC applied, patients with CD4 >300 cu/mm
[11] = combined 0.1% + 0.05% DPC dosages, patients with CD4 <300 cu/mm
[12] = combined 00.1% + 0.05% DPC dosages, patients with CD4 >300 cu/mm
[13] = combined 0.4% + 0.2% DPC dosages, patients with CD4 <300 cu/mm
[14] = combined 0.4% + 0.2% DPC dosages, patients with CD4 >300 cu/mm

What does the source list for `O=c1c(-c2ccccc2)c1-c1ccccc1` [DPC, Diphenylcyclopropenone]?
# Non-Reactor Patients [1, 3]: 2; # Non-Reactor Patients (%) [1, 3]: 100%; # Reactor Patients [1, 3]: 0 (0%); # Reactor Patients (%) [1, 3]: 0 (0%); # Non-Reactor Patients [1, 4]: 8; # Non-Reactor Patients (%) [1, 4]: 100%; # Reactor Patients [1, 4]: 0 (0%); # Reactor Patients (%) [1, 4]: 0 (0%); # Non-Reactor Patients [1, 5]: 2; # Non-Reactor Patients (%) [1, 5]: 100%; # Reactor Patients [1, 5]: 0 (0%); # Reactor Patients (%) [1, 5]: 0 (0%); # Non-Reactor Patients [1, 6]: 4; # Non-Reactor Patients (%) [1, 6]: 80%; # Reactor Patients [1, 6]: 1; # Reactor Patients (%) [1, 6]: 20%; # Non-Reactor Patients [1, 7]: 2; # Non-Reactor Patients (%) [1, 7]: 40%; # Reactor Patients (%) [1, 7]: 60%; # Non-Reactor Patients (%) [1, 8]: 28.6%; # Reactor Patients [1, 8]: 5; # Reactor Patients (%) [1, 8]: 71.4%; # Non-Reactor Patients (%) [1, 9]: 100%; # Reactor Patients (%) [1, 9]: 0 (0%); # Non-Reactor Patients ([1]; 0.4% DPC applied, patients with CD4 <300 cu/mm, Non-Reactor = score 0 or +1): 4; # Non-Reactor Patients (%) [1, 10]: 14.3%; # Reactor Patients [1, 10]: 6; # Reactor Patients (%) [1, 10]: 85.7%; subjects in whom skin reactivity agreed with CD4 count (>300 cu/mm reactive, <300 cu/mm non-skin reactive) ([1]; all 40 subjects of the study): 36 of the 40; Non-Reactors [1, 11]: 4; Non-Reactors (%) [1, 11]: 100%; Reactors [1, 11]: 0 (0%); Reactors (%) [1, 11]: 0 (0%); Non-Reactors [1, 12]: 12; Non-Reactors (%) [1, 12]: 92.3%; Reactors [1, 12]: 1; Reactors (%) [1, 12]: 7.7%; Non-Reactors [1, 13]: 6; Non-Reactors (%) [1, 13]: 67%; Reactors [1, 13]: 3; Reactors (%) [1, 13]: 33%; Non-Reactors [1, 14]: 3; Non-Reactors (%) [1, 14]: 21.4%; Reactors [1, 14]: 11; Reactors (%) [1, 14]: 78.6%; subjects who withdrew because of side effects ([2]; 40 subjects): None; Side effects ([2]; topical 0.1 ml applications of 0.05-0.4% DPC): minimal and were limited to adenopathies that were self-limited and disappeared upon completion of the study
